The text below walks through data of patent US12180226B2, “Spirotricycle RIPK1 inhibitors and methods of uses thereof” (Merck Sharp & Dohme LLC, priority 2021, dated 2024).

This experiment concerns the target RIPK1 (recombinant GST-RIPK1 kinase domain, residues 1-327) (Homo sapiens (Human), UniProt Q13546). The experiment in a line: RIPK1-ADP-Glo Enzymatic Assay. The following applies: ADP-Glo; 25 nM GST-RIPK1, 300 μM ATP; assay lower limit ~25 nM; read-out: RIPK1 V0 Ec50. Type of experiment: biochemical. An outline of the steps: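 Inhibition of ADP formation was measured after compound and enzyme (25 nM) were pre-incubated for 30 minutes at ambient temperature and the kinase reaction ran for 150 minutes at 300 μM ATP with dephosphorylated MBP substrate. EC50 values come from ten-point curves fitted non-linearly.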
For orientation: In ADP-Glo the light output rises with the ADP produced.

RIPK1 (recombinant GST-RIPK1 kinase domain, residues 1-327), sequence (Q13546 1-327): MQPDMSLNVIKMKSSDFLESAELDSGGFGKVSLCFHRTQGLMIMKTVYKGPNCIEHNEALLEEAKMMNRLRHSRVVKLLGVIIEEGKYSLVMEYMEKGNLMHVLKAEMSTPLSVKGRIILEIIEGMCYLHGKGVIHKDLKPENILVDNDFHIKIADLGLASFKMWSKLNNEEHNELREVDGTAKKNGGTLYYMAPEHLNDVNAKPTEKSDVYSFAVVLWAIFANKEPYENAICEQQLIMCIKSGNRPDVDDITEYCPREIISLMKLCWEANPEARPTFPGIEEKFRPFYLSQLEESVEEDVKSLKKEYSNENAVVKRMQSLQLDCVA

The EC50 is the concentration giving half of the maximal effect. Turning to `N#Cc1ccc(F)c(C(=O)N2CCC3(CC2)O[C@@H]2CC[C@@H](c4ccccc4)N2C3=O)c1` [Example 6.148], the concentration for a half-maximal effect (EC50) was less than 25 nM.

For the molecule `O=C1N2[C@@H](CC[C@H]2c2ccccc2)OC12CCN(c1ncc(-c3ncco3)c(C(F)(F)F)n1)CC2` [Example 21.2, (5′S,7a′R)-1-[5-(1,3-oxazol-2-yl)-4-(trifluoromethyl)pyrimidin-2-yl]-5′-phenyltetrahydro-3′H-spiro[piperidine-4,2′-pyrrolo[2,1-b][1,3]oxazol]-3′-one], the EC50 was less than 25 nM.

As to `CC1(NC(=O)c2nc(N3CCC4(CC3)O[C@@H]3CC[C@@H](c5cc(F)cc(F)c5)N3C4=O)ncc2F)CC1` [Example 7.11, 2-[(5′S,7a′R)-5′-(3,5-difluorophenyl)-3′-oxotetrahydro-1H,3′H-spiro[piperidine-4,2′-pyrrolo[2,1-b][1,3]oxazol]-1-yl]-5-fluoro-N-(1-methyl-cyclopropyl)pyrimidine-4-carboxamide], the EC50 was 92.2 nM.

Consider `O=C1N2[C@@H](CC[C@H]2c2ccccc2)OC12CCN(c1ncnc3ccsc13)CC2` [Example 4.37, (5′S,7a′R)-5′-phenyl-1-(thieno[3,2-d]pyrimidin-4-yl)tetrahydro-3′H-spiro[piperidine-4,2′-pyrrolo[2,1-b] [1,3]oxazol]-3′-one], for which the EC50 is less than 25 nM.

`CC1C[C@@]2(CCN1C(=O)c1ccccc1)O[C@@H]1CC[C@@H](c3cccc(F)c3)N1C2=O` (stereo partly drawn) [Example 6.161, (4R,5′S,7a′R)-1-(benzenecarbonyl)-5′-(3-fluorophenyl)-2-methyltetrahydro-3′H-spiro[piperidine-4,2′-pyrrolo[2,1-b][1,3]-oxazol]-3′-one]: the EC50 stood at 275 nM.

As for `O=C1N2[C@@H](CC[C@H]2c2ccccc2)OC12CCN(c1ccnc3c(F)cnn13)CC2` [Example 4.1, (5′S,7a′R)-1-(3-fluoropyrazolo[1,5-a]pyrimidin-7-yl)-5′-phenyltetrahydro-3′H-spiro[piperidine-4,2′-pyrrolo[2,1-b]oxazol]-3′-one], the EC50 is less than 25 nM.

Take `O=C(c1ccccc1)N1CCC2(CC1)O[C@@H]1CC[C@@H](c3ccc(F)cc3)N1C2=O` [Example 2.8, (5′S,7a′R)-1-benzoyl-5′-(4-fluorophenyl)tetrahydro-3′H-spiro[piperidine-4,2′-pyrrolo[2,1-b]oxazol]-3′-one]: the half-maximal effective concentration (EC50) was 36.8 nM.

As for `CC1CC2(CCN1c1ncnc3ccnn13)O[C@@H]1CC[C@@H](c3cc(F)cc(F)c3)N1C2=O` (stereo partly drawn) [Example 4.213, (5′S,7a′R)-5′-(3,5-difluorophenyl)-2-methyl-1-(pyrazolo[1,5-a] [1,3,5]triazin-4-yl)tetrahydro-3′H-spiro[piperidine-4,2′-pyrrolo[2,1-b] [1,3]oxazol]-3′-one], the EC50 was less than 25 nM.

As for `Cc1ccccc1C(=O)N1CCC2(CC1)O[C@@H]1CC[C@@H](c3cc(F)cc(F)c3)N1C2=O` [Example 6.11, (5′S,7a′R)-5′-(3,5-difluorophenyl)-1-(2-methybenzene-1-carbonyl)tetrahydro-3′H-spiro[piperidine-4,2′-pyrrolo[2,1-b] [1,3]oxazol]-3′-one], the EC50 turned out to be 69.2 nM.

Regarding `Cc1cc(C)cc(C(=O)N2CCC3(CC2)O[C@@H]2CC[C@@H](c4ccccc4)N2C3=O)c1` [Example 6.150, (5′S,7a′R)-1-(3,5-dimethylbenzene-1-carbonyl)-5′-phenyl-tetrahydro-3′H-spiro [piperidine-4,2′-pyrrolo[2,1-b][1,3]oxazol]-3′-one], the EC50 is 118 nM.

Turning to `O=C1N2[C@@H](CC[C@H]2c2cc(F)cc(F)c2)OC12CCN(c1ncc(C3CC3)cn1)CC2` [Example 4.56, (5′S,7a′R)-1-(5-cyclopropylpyrimidin-2-yl)-5′-(3,5-difluorophenyl)tetrahydro-3′H-spiro[piperidine-4,2′-pyrrolo[2,1-b] [1,3]oxazol]-3′-one], the EC50 came out at 565 nM.
